Assay results: US8227478B2, “JNK modulators” (Roche Palo Alto LLC, priority 2008, dated 2012)
pIC50: −log10 of the molar value. Several values for one entry are separate records, joined by “and”; a condition that tells them apart may be missing. Equal values may be shown once.

Columns and labels:
Human JNK1α1 = Human JNK1α1 (Homo sapiens, UniProt P45983); assay: JNK assay in vitro, phosphorylation of GST-ATF2 (19-96) with [γ-33P] ATP; type: biochemical; settings: Human JNK1α1, 2 nM enzyme, 1 μM ATF2, 6 μM ATP (Km); read-out: JNK1 - IC50
Protocol: (§1) JNK activity was measured by phosphorylation of GST-ATF2 (19-96) with [γ-^33P] ATP. The enzyme reaction was conducted at Km concentrations of ATP and the substrate at final volume of 40 μl in buffer containing 25 mM HEPES, pH 7.5, 2 mM dithiothreitol, 150 mM NaCl, 20 mM MgCl2, 0.001% Tween® 20, 0.1% BSA and 10% DMSO. Human JNK2α2 assay contains 1 nM enzyme, 1 μM ATF2, 8 μM ATP with 1 uCi [γ-^33P] ATP. Human JNK1α1 assay contains 2 nM enzyme, 1 μM ATF2, 6 μM ATP with 1 μCi [γ-^33P] ATP. Human JNK3 (Upstate Biotech #14-501M) assay contains 2 nM enzyme, 1 μM ATF2, 4 μM ATP with 1 μCi [γ-^33P] ATP. The enzyme assay was carried out in the presence or absence of several compound concentrations. JNK and compound were pre-incubated for 10 min., followed by initiation of the enzymatic reaction by adding ATP and the substrate. The reaction mixture was incubated at 30° C. for 30 min. At the end of incubation, the reaction was terminated by transferring 25 μl of the reaction mixture to 150 μl of 10% glutathione Sepharose® slurry (Amersham #27-4574-01) containing 135 mM EDTA. The reaction product was captured on the affinity resin, and washed on a filtration plate (Millipore, MABVNOB50) with phosphate buffered saline for six times to remove free radionucleotide. The incorporation of ^33P into ATF2 was quantified on a microplate scintillation counter (Packard Topcount). Compound inhibition potency on JNK was measured by IC50 value generated from ten concentration inhibition curves fitted into the 3-parameter model: % inhibition=Maximum/(1+(IC50/[Inhibitor])^slope). Data were analyzed on Microsoft Excel for parameter estimation.

Human JNK2α2 = Human JNK2α2 (Homo sapiens, UniProt P45984); assay: as above; type: biochemical; settings: Human JNK2α2, 1 nM enzyme, 1 μM ATF2, 8 μM ATP (Km); read-out: JNK2 - IC50
Protocol: as §1

phospho-c-Jun = assay: Phospho-c-Jun translocation assay in TNFα-activated SW1353 cells; type: cell-based; settings: Homo sapiens, TNFα 1 ng/ml for 20 min, 30 min compound pre-incubation
Excerpt: Inflammation is regulated in part by the action of c-Jun on other genes in the inflammatory pathway. Thus, inhibition of phosphorylated c-Jun translocation to the nucleus provides an indication of the anti-inflammatory activity of a compound. SW1353 cells were purchased from the American Tissue Culture Collection and maintained in growth media containing DMEM medium (Invitrogen) with 10% fetal bovine serum (Invitrogen), ascorbic acid (Sigma), and penicillin/streptomycin/[…] (Invitrogen) under culture conditions (at 37° C. with 5% CO2). Cells were plated at a density of 8,000 cells/well in 100 μl growth medium 24 h prior to the compound treatment. Immediately before the compound treatment, growth media was replaced with 90 μl of fresh media. Compound stock at 10 mM was first diluted in compound vehicle (DMSO) to 3 mM, then diluted in serum-free medium and added to each well as a 10× concentrated solution in a volume of 10 μl, mixed, and pre-incubated with cells for 30 min at 37° C. in 5% CO2. Compound vehicle (DMSO) was maintained at a final concentration of 1% for all samples. After 30 min incubation, the cells were activated with TNFα (1 ng/ml, Roche Biochem) for 20 min. Cells were then fixed, permeabilized, and stained with anti-phospho-c-Jun antibody (Santa Cruz), followed by Alexa Fluor 488 labeled secondary antibody and Hoechet 33342 dye (Invitrogen) per manufacturer's instructions. The signals of phospho-c-Jun were measured for 400 cells per well by the ArrayScan HCS system (Cellomic). The IC50 values were calculated as the concentration of the compound at which the phospho-c-Jun activity was inhibited to 50% of the control value using the 4-parameter fitting function in the ActivityBase program (IDBS).

Sequence of Human JNK1α1 (P45983 1-384 isoform P45983-2): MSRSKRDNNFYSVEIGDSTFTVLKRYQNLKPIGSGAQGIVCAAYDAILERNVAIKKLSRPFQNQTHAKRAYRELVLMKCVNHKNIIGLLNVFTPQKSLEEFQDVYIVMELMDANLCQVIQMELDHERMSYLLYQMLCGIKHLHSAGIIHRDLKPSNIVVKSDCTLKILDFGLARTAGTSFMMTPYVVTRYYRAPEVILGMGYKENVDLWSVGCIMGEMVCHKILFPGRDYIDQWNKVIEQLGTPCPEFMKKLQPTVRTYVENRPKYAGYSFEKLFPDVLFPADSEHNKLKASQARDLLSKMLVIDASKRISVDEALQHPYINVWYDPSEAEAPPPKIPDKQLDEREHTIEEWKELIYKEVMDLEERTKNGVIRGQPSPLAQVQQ
Sequence of Human JNK2α2 (P45984 whole entry): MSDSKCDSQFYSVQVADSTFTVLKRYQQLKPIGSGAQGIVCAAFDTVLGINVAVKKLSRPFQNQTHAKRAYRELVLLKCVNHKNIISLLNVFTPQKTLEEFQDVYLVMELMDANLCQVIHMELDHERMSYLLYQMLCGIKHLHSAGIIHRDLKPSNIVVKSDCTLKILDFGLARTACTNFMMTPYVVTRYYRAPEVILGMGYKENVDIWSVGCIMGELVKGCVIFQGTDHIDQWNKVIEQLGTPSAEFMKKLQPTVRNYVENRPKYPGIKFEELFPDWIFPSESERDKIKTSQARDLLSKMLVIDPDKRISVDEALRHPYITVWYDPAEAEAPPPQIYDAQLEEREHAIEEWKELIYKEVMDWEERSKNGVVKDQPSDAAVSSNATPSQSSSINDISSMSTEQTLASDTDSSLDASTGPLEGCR

`Cc1cscc1-c1cccc2c1nnn2-c1ccnc(N[C@H]2CC[C@H](C(=O)N3CCC(O)CC3)CC2)n1` [Compound 1] gave a pIC50 (Human JNK1α1) of 8.55, a pIC50 (Human JNK2α2) of 7.90 and a pIC50 (phospho-c-Jun) of 6.15. It also gave a melting point of 246 to 247 °C.
`Cc1ccccc1-c1cccc2c1nnn2-c1ccnc(N[C@H]2CC[C@H](C(=O)N3CCC(O)CC3)CC2)n1` [Compound 2, (4-Hydroxy-piperidin-1-yl)-{4-[4-(4-o-tolyl-benzotriazol-1-yl)-pyrimidin-2-ylamino]-cyclohexyl}-methanone] showed a pIC50 (Human JNK1α1) of 8.24, a pIC50 (Human JNK2α2) of 7.70 and a pIC50 (phospho-c-Jun) of 6.17. For the same compound, the melting point was 224 to 226 °C and 224.6 to 225.9 °C.
In the case of `Cc1ccncc1-c1cccc2c1nnn2-c1ccnc(N[C@H]2CC[C@H](C(=O)N3CCC(O)CC3)CC2)n1` [Compound 3, (4-Hydroxy-piperidin-1-yl)-(4-{4-[4-(4-methylpyirin-3-yl)-benzotriazol-1-yl]-pyrimidin-2-ylamino}-cyclohexyl)-methanone], the pIC50 (Human JNK1α1) was 7.56, the pIC50 (Human JNK2α2) was 7.04 and the pIC50 (phospho-c-Jun) was 5.55. It also gave a melting point of 194.3 to 218.2 °C.
Compound `Cc1noc(C)c1-c1cccc2c1nnn2-c1ccnc(N[C@H]2CC[C@H](C(=O)N3CCC(O)CC3)CC2)n1` [Compound 4, (4-{4-[4-(3,5-Dimethylisoxazol-4-yl)-benzotriazol-1-yl]-pyrimidin-2-ylamino}-cyclohexyl)-(4-hydroxy-piperidin-1-yl)-methanone] has a pIC50 (Human JNK1α1) of 7.36, a pIC50 (Human JNK2α2) of 6.98 and a pIC50 (phospho-c-Jun) of 5.59. For the same compound, the melting point was > 300 °C.
For `Cc1cscc1-c1cccc2c1nnn2-c1ccnc(NC2CCN(S(C)(=O)=O)CC2)n1` [Compound 5, (1-Methanesulfonyl-piperidin-4-yl)-{4-[4-(4-methyl-thiophen-3-yl)-benzotriazol-1-yl]-pyrimidin-2-yl}-amine], the pIC50 (Human JNK1α1) was 8.44, the pIC50 (Human JNK2α2) was 7.75 and the pIC50 (phospho-c-Jun) was 4.86.
With `O=C([C@H]1CC[C@H](Nc2nccc(-n3nnc4c(-c5ccsc5)cccc43)n2)CC1)N1CCC(O)CC1` [Compound 6, (4-Hydroxy-piperidin-1-yl)-{4-[4-(4-thiophen-3-ylbenzotriazol-1-yl)-pyrimidin-2-ylamino]-cyclohexyl}-methanone] the pIC50 (Human JNK1α1) was 7.69, the pIC50 (Human JNK2α2) was 7.17 and the pIC50 (phospho-c-Jun) was 5.48. The melting point was 233 to 234 °C.
`Cc1cscc1-c1cccc2c1ccn2-c1ccnc(N[C@H]2CC[C@H](C(=O)N3CCC(O)CC3)CC2)n1` [Compound 7, (4-Hydroxy-piperidin-1-yl)-(4-{4-[4-(4-methyl-thiophen-3-yl)-indol-1-yl]-pyrimidin-2-ylamino}-cyclohexyl)-methanone] showed a pIC50 (Human JNK1α1) of 7.48, a pIC50 (Human JNK2α2) of 7.01 and a pIC50 (phospho-c-Jun) of 5.08. For the same compound, the melting point was 168 to 188 °C.
In the case of `O=C([C@H]1CC[C@H](Nc2nccc(-n3nnc4c(-c5ccncc5)cccc43)n2)CC1)N1CCC(O)CC1` [Compound 8], the pIC50 (Human JNK1α1) was 7.54, the pIC50 (Human JNK2α2) was 7.04 and the pIC50 (phospho-c-Jun) was 5.24. For the same compound, the melting point was 266 to 267 °C.
In the case of `O=C([C@H]1CC[C@H](Nc2nccc(-n3nnc4c(-c5ccoc5)cccc43)n2)CC1)N1CCC(O)CC1` [Compound 9, {4-[4-(4-Furan-3-yl-benzotriazol-1-yl)-pyrimidin-2-ylamino]-cyclohexyl}-(4-hydroxy-piperidin-1-yl)-methanone], the pIC50 (Human JNK1α1) was 7.40, the pIC50 (Human JNK2α2) was 6.89 and the pIC50 (phospho-c-Jun) was ≤ 4.52. The melting point was 243 to 244 °C.
With `Cc1n[nH]cc1-c1cccc2c1nnn2-c1ccnc(NC2CCN(S(C)(=O)=O)CC2)n1` [Compound 10, (1-Methanesulfonyl-piperidin-4-yl)-{4-[4-(3-methyl-1H-pyrazol-4-yl)-benzotriazol-1-yl]-pyrimidin-2-yl}-amine] the pIC50 (Human JNK1α1) was 8.52, the pIC50 (Human JNK2α2) was 7.85 and the pIC50 (phospho-c-Jun) was 5.67. It also gave a melting point of 231 to 232 °C.
For `Cc1n[nH]cc1-c1cccc2c1nnn2-c1ccnc(N[C@H]2CC[C@H](C(=O)N3CCC(O)CC3)CC2)n1` [Compound 11, (4-Hydroxy-piperidin-1-yl)-(4-{4-[4-(3-methyl-1H-pyrazol-4-yl)-benzotriazol-1-yl]-pyrimidin-2-ylamino}-cyclohexyl)-methanone], the pIC50 (Human JNK1α1) was 8.28, the pIC50 (Human JNK2α2) was 7.73 and the pIC50 (phospho-c-Jun) was 6.36.
`Cc1n[nH]cc1-c1cccc2c1ccn2-c1ccnc(N[C@H]2CC[C@H](C(=O)N3CCC(O)CC3)CC2)n1` [Compound 12, (4-Hydroxy-piperidin-1-yl)-(4-{4-[4-(3-methyl-1H-pyrazol-4-yl)-indol-1-yl]-pyrimidin-2-ylamino}-cyclohexyl)-methanone] showed a pIC50 (Human JNK1α1) of 7.50, a pIC50 (Human JNK2α2) of 6.92 and a pIC50 (phospho-c-Jun) of 5.59. For the same compound, the melting point was 215 to 220 °C.
Compound `Cc1noc(C)c1-c1cccc2c1ccn2-c1ccnc(N[C@H]2CC[C@H](C(=O)N3CCC(O)CC3)CC2)n1` [Compound 13, (4-{4-[4-(3,5-Dimethyl-isoxazol-4-yl)-indol-1-yl]-pyrimidin-2-ylamino}-cyclohexyl)-(4-hydroxy-piperidin-1-yl)-methanone] has a pIC50 (Human JNK1α1) of 7.32 and a pIC50 (Human JNK2α2) of 6.65.
In the case of `Cc1ccncc1-c1cccc2c1ccn2-c1ccnc(N[C@H]2CC[C@H](C(=O)N3CCC(O)CC3)CC2)n1` [Compound 14, (4-Hydroxy-piperidin-1-yl)-(4-{4-[4-(4-methyl-pyridin-3-yl)-indol-1-yl]-pyrimidin-2-ylamino}-cyclohexyl)-methanone], the pIC50 (Human JNK1α1) was 7.06, the pIC50 (Human JNK2α2) was 6.47 and the melting point was 176 to 178 °C.
With `Cc1ccccc1-c1cccc2c1ccn2-c1ccnc(N[C@H]2CC[C@H](C(=O)N3CCC(O)CC3)CC2)n1` [Compound 15, (4-Hydroxy-piperidin-1-yl)-{4-[4-(4-o-tolyl-indol-1-yl)-pyrimidin-2-ylamino]-cyclohexyl}-methanone] the pIC50 (Human JNK1α1) was 7.19, the pIC50 (Human JNK2α2) was 6.66 and the melting point was 158 to 160 °C.
Work on `O=C([C@H]1CC[C@H](Nc2nccc(-n3ccc4c(-c5ccncc5)cccc43)n2)CC1)N1CCC(O)CC1` [Compound 16, (4-Hydroxy-piperidin-1-yl)-{4-[4-(4-pyridin-4-yl-indol-1-yl)-pyrimidin-2-ylamino]-cyclohexyl}-methanone] yielded a pIC50 (Human JNK1α1) of 7.36, a pIC50 (Human JNK2α2) of 6.76 and a pIC50 (phospho-c-Jun) of 5.60. For the same compound, the melting point was 258 to 259 °C.
Compound `O=C([C@H]1CC[C@H](Nc2nccc(-n3ccc4c(-c5ccccc5)cccc43)n2)CC1)N1CCC(O)CC1` [Compound 17, (4-Hydroxy-piperidin-1-yl)-{4-[4-(4-phenyl-indol-1-yl)-pyrimidin-2-ylamino]-cyclohexyl}-methanone] has a pIC50 (Human JNK1α1) of 6.58, a pIC50 (Human JNK2α2) of 6.07 and a melting point of 190 to 191 °C.
In the case of `O=C([C@H]1CC[C@H](Nc2nccc(-n3ccc4c(-c5ccsc5)cccc43)n2)CC1)N1CCC(O)CC1` [Compound 18, (4-hydroxy-piperidin-1-yl)-{4-[4-(4-thiophen-3-yl-indol-1-yl)-pyrimidin-2-ylamino]-cyclohexyl}-methanone], the pIC50 (Human JNK1α1) was 7.32, the pIC50 (Human JNK2α2) was 6.72 and the melting point was 171 to 172 °C.
